Earlier results in patent US20120202218A1, “DETECTION METHOD AND DEVICE BASED ON NANOPARTICLE AGGREGATION” (MODPRO AB, priority 2008, published 2012).

Tests used:
Fab57P = details: binding to Fab57P, literature
[1] = neutral pH

Substance	Kd (Fab57P)	net charge [1]
H-CRGTGSYNRSSFESSSGLV-NH2 [C-pTMVP]	~1 nM	–
H2N-NAADLEKAIEALEKHLEAKGPCDAAQLEKQLEQAFEAFERAG-COOH (H-NAADLEKAIEALEKHLEAKGPCDAAQLEKQLEQAFEAFERAG-OH) [JR2EC]	–	−5
